Data taken from article PMC10410440, “Preclinical PK investigation of a novel IDO1/TDO dual inhibitor—SHR9146 in mouse plasma and tissues by LC-MS/MS” (Frontiers in Oncology, 2023).
Where “and” joins values, the source holds several entries; their conditions need not be identical. Equal entries are not always repeated. Entries after “also recorded” stand apart in the source; their conditions may differ. Where two headings read alike, the source gives them in different places.

Assay: Plasma pharmacokinetics of SHR9146 in mice (LC-MS/MS, non-compartmental analysis)
Assay type: in vivo, ICR mice
Details: for AUC(0-t): read-out: AUC0-t; for half-life: read-out: t1/2 (converted); for Cmax: read-out: Cmax; for Tmax: read-out: Tmax
Protocol: ICR mice with body weight 16–26 g were supplied by Shanghai Lingchang Biotechnology Co., Ltd. (animal breeding license number SCXK (Shanghai) 2013-0018) and housed at Shanghai Institute of Materia Medica, Chinese Academy of Sciences [animal use license number SYXK (Shanghai) 2015-0027]. The mice used in this study were fasted overnight for 12 h but had free access to water. Food was supplied 4 h post-dose. All experiments in this study were conducted in accordance with the Guidelines for the Care and Use of Laboratory Animals of Shanghai Institute of Materia Medica, Chinese Academy of Sciences.
A total of 30 mice were randomly assigned into five groups with equal numbers, males and females. One group was intravenously administrated with 5 mg/kg SHR9146 dissolved in […] plus 95% saline (adjusted pH to 4.0) under sterile conditions. The remaining four groups were administered respectively with a single dose of 20 , 40, or 80 mg/kg or multiple doses of 20 mg/kg twice daily for 7 days, by oral gavage of SHR9146 dissolved in 0.5% CMC-Na. Blood samples were obtained from the fossa orbitalis vein at 15 and 30 min and 1.0, 2.0, 4.0, 6.0, 8.0, 10.0, and 24.0 h after oral gavage administration. An additional 5-min time point was included for iv injection, as well as the pre-drug administration time points on the fifth, sixth, and seventh days in the multiple-dose group. The blood samples were collected in EDTA K2 anticoagulant blood collection tubes and centrifuged at 1,000 rpm for 5 min at 4°C. The supernatant plasma samples were thus produced.
Briefly as follows, an aliquot of 25-μL plasma or tissue homogenate was spiked with 100 μL of internal standard solution (1 μg/mL for plasma, 0.2 μg/mL for tissue homogenate) and 300 μL of methanol added and vortex mixed for 60 s. The mixture was then centrifuged at 14,000 rpm at 4°C for 5.0 min, and the supernatant was diluted with methanol–water (4:1, v/v) in a ratio of 1:9 for the plasma or 1:1 for the tissue homogenate, and 5 μL of the resulting solution was injected for the LC-MS/MS analysis.
The pharmacokinetic parameters of SHR9146 in mouse plasma were estimated by Phoenix 1.4 software using a non-compartmental model.
The mean concentration–time curves of SHR9146 in mouse plasma after a single oral gavage dose of 20, 40, or 80 mg/kg, or a single intravenous dose of 5 mg/kg, or the 7th-day steady state after twice-daily multiple oral doses of 20 mg/kg are shown in Figure 5 (Table S6).

[1] = female, ICR, mouse, plasma, iv, 5 mg/kg, 5 mg/kg i.v. single dose, female mice, plasma
[2] = female, ICR, mouse, plasma, po, 20 mg/kg, 20 mg/kg i.g. bid, 7 days (7th-day steady state), female mice, plasma
[3] = female, ICR, mouse, plasma, po, 20 mg/kg, 20 mg/kg i.g. single dose, female mice, plasma
[4] = female, ICR, mouse, plasma, po, 40 mg/kg, 40 mg/kg i.g. single dose, female mice, plasma
[5] = female, ICR, mouse, plasma, po, 80 mg/kg, 80 mg/kg i.g. single dose, female mice, plasma
[6] = male, ICR, mouse, plasma, iv, 5 mg/kg, 5 mg/kg i.v. single dose, male mice, plasma
[7] = male, ICR, mouse, plasma, po, 20 mg/kg, 20 mg/kg i.g. bid, 7 days (7th-day steady state), male mice, plasma
[8] = male, ICR, mouse, plasma, po, 20 mg/kg, 20 mg/kg i.g. single dose, male mice, plasma
[9] = male, ICR, mouse, plasma, po, 40 mg/kg, 40 mg/kg i.g. single dose, male mice, plasma
[10] = male, ICR, mouse, plasma, po, 80 mg/kg, 80 mg/kg i.g. single dose, male mice, plasma
[11] = single oral dosing 20 to 80 mg/kg pooled, mouse plasma, n=6

SMILES: OCCn1cc(-c2ccc(N3CCC([C@H]4c5c(F)cccc5-c5cncn54)CC3)cc2)cn1 [SHR9146]
- MRT inf (both sexes, ICR, mouse, po, 80 mg/kg i.g. single dose, all mice (Totol, 3 male + 3 female), plasma, read-out: MRT0-∞): 4.6 h
- AUC(0-inf) (female, ICR, mouse, plasma, iv, 5 mg/kg, 5 mg/kg i.v. single dose, female mice): 6910 ng·h/mL
- AUC(0-t) [1]: 6800 ng·h/mL
- half-life [1]: 0.665 h
- AUC(0-inf) (female, ICR, mouse, plasma, po, 20 mg/kg, 20 mg/kg i.g. bid, 7 days (7th-day steady state), female mice): 24300 ng·h/mL
- AUC(0-t) [2]: 24200 ng·h/mL
- Cmax [2]: 10900 ± 737 ng/mL
- Tmax [2]: 0.833 ± 0.289 h
- half-life [2]: 0.951 h
- AUC(0-inf) (female, ICR, mouse, plasma, po, 20 mg/kg, 20 mg/kg i.g. single dose, female mice): 17900 ng·h/mL
- AUC(0-t) [3]: 16800 ng·h/mL
- Cmax [3]: 9170 ± 4240 ng/mL
- Tmax [3]: 0.5 ± 0.433 h
- half-life [3]: 0.866 h
- AUC(0-t) [4]: 12400 ng·h/mL
- Cmax [4]: 9880 ± 3490 ng/mL
- Tmax [4]: 1.83 ± 1.89 h
- AUC(0-inf) (female, ICR, mouse, plasma, po, 80 mg/kg, 80 mg/kg i.g. single dose, female mice): 65900 ng·h/mL
- AUC(0-t) [5]: 64700 ng·h/mL
- Cmax [5]: 18700 ± 7300 ng/mL
- Tmax [5]: 1.17 ± 0.764 h
- half-life [5]: 1.49 h
- AUC(0-inf) (male, ICR, mouse, plasma, iv, 5 mg/kg, 5 mg/kg i.v. single dose, male mice): 6950 ng·h/mL
- AUC(0-t) [6]: 6730 ng·h/mL
- half-life [6]: 0.761 h
- AUC(0-inf) (male, ICR, mouse, plasma, po, 20 mg/kg, 20 mg/kg i.g. bid, 7 days (7th-day steady state), male mice): 24400 ng·h/mL
- AUC(0-t) [7]: 24300 ng·h/mL
- Cmax [7]: 10500 ± 993 ng/mL
- Tmax [7]: 0.833 ± 0.289 h
- half-life [7]: 1.06 h
- AUC(0-inf) (male, ICR, mouse, plasma, po, 20 mg/kg, 20 mg/kg i.g. single dose, male mice): 14600 ng·h/mL
- AUC(0-t) [8]: 14400 ng·h/mL
- Cmax [8]: 10000 ± 2370 ng/mL
- Tmax [8]: 0.417 ± 0.144 h
- half-life [8]: 0.531 h
- AUC(0-inf) (male, ICR, mouse, plasma, po, 40 mg/kg, 40 mg/kg i.g. single dose, male mice): 33400 ng·h/mL
- AUC(0-t) [9]: 31000 ng·h/mL
- Cmax [9]: 15000 ± 3240 ng/mL
- Tmax [9]: 1.33 ± 0.577 h
- half-life [9]: 1.66 h
- AUC(0-inf) (male, ICR, mouse, plasma, po, 80 mg/kg, 80 mg/kg i.g. single dose, male mice): 75900 ng·h/mL
- AUC(0-t) [10]: 75300 ng·h/mL
- Cmax [10]: 15500 ± 6150 ng/mL
- Tmax [10]: 1.83 ± 1.89 h
- half-life [10]: 3.3 h
- Vd, post-oral (oral 20 to 80 mg/kg pooled, mouse plasma, n=6): 3.427 ± 1.617 L/kg
- dose dependence of oral pharmacokinetics (oral 20 to 80 mg/kg, mice, Cmax and AUC): dose proportionality; also recorded: linear pharmacokinetics characteristics; also recorded: dose-independent kinetics
- CL, post-oral [11]: 19.8 ± 0.9 mL/min/kg and 19.769 ± 0.866 mL/min/kg
- Vd, post-oral [11]: 3.43 ± 1.62 L/kg
